The source of these data is US4097591A, “N^2 -arylsulfonyl-L-argininamides and the pharmaceutically acceptable salts thereof” (Mitsubishi Chemical Industries Limited, priority 1977, dated 1978).

One assay addresses T1, thrombin (Bos taurus, UniProt P00735).
T1 construct: clotting of bovine fibrinogen
Description: fibrinogen coagulation time (prolongation by a factor of two). The class given is biochemical. As to conditions: pH 7.4, TABLE 2 (Sample Nos. 1-14, own numbering); bovine fibrinogen, thrombin 5 units/ml, pH 7.4, 25° C; read-out: Concentration required to prolong the coagulation time by a factor of two. The procedure:
The measurement of the fibrinogen coagulation time was conducted as follows:
Immediately after mixing, the reaction mixture was transferred from the ice bath to a bath maintained at 25° C. Coagulation times were taken as the period between the time of transference to the 25° C bath and the time of the first appearance of fibrin threads. […] The term "concentration required to prolong the coagulation time by a factor of two" is the concentration of an active ingredient required to prolong the normal coagulation time 50-55 seconds to 100-110 seconds.
Regarding `CCCCN(CC(=O)O)C(=O)[C@H](CCCNC(=N)N)NS(=O)(=O)c1ccc(OC)c(C2CCCCC2)c1` [compound 3, N^2-(3-cyclohexyl-4-methoxyphenylsulfonyl)-L-arginyl-N-butylglycine], the IC (2-fold clotting time) came to 5 µM.

For `CCCCN(CC(=O)O)C(=O)[C@H](CCCNC(=N)N)NS(=O)(=O)c1ccc(OC)c(Cc2ccccc2)c1` [compound 2], the IC (2-fold clotting time) stood at 38 µM.

Still in this assay, the particulars now being: pH 7.4, first table (Sample Nos. 1-235); bovine fibrinogen, thrombin 5 units/ml, pH 7.4, 25° C; read-out: Concentration required to prolong the coagulation time by a factor of two.
For `Cc1ccc2ccc(S(=O)(=O)N[C@@H](CCCNC(=N)N)C(=O)N3CCC(C(C)C)CC3C(=O)O)cc2c1` (stereo partly drawn) [compound 175], the IC (2-fold clotting time) stood at 0.1 µM.

On to `COc1cc2ccc(S(=O)(=O)N[C@@H](CCCNC(=N)N)C(=O)N(CC(=O)O)Cc3ccccc3)cc2cc1OC` [compound 50], for which the IC (2-fold clotting time) worked out at 2.5 µM.

For the compound `COc1ccc2ccc(S(=O)(=O)N[C@@H](CCCNC(=N)N)C(=O)N3CCOCC3C(=O)O)cc2c1` (stereo partly drawn) [compound 189], the IC (2-fold clotting time) worked out at 2 µM.

In the case of `COCCN(CCC(=O)O)C(=O)[C@H](CCCNC(=N)N)NS(=O)(=O)c1ccc2cc(OC)c(OC)cc2c1` [compound 15], the IC (2-fold clotting time) was 2.5 µM.
